Reference: PMC8480782, “Efficient Dimerization Disruption of Leishmania infantum Trypanothione Reductase by Triazole-phenyl-thiazoles” (Journal of Medicinal Chemistry, 2021)
Non-standard residues stand in square brackets, D forms with d. Residues, ends and D or L forms follow the SMILES beside them. Nle = CCCC[C@H](N)C(=O)O

Columns and labels:
[1] = system: L. infantum axenic amastigotes; assay: Leishmanicidal activity on axenic amastigotes (PI exclusion, flow cytometry); format: cell-based, Leishmania infantum; conditions: HepG2 / axenic amastigotes
Protocol: (§1) L. infantum promastigotes (MCAN/ES/89/IPZ229/1/89) were grown in Roswell Park Memorial Institute (RPMI)-1640 medium (Sigma-Aldrich, St. Louis, MO) supplemented with 10% heat-inactivated fetal calf serum (FCS), antibiotics, and 25 mM HEPES (pH 7.2) at 26 °C. L. infantum axenic amastigotes (MCAN/ES/89/IPZ229/1/89) were grown in M199 medium (Invitrogen, Leiden, The Netherlands) supplemented with 10% heat-inactivated FCS, 1 g/L β-alanine, 100 mg/L L-asparagine, 200 mg/L sucrose, 50 mg/L sodium pyruvate, 320 mg/L malic acid, 40 mg/L fumaric acid, 70 mg/L succinic acid, 200 mg/L α-ketoglutaric acid, 300 mg/L citric acid, 1.1 g/L sodium bicarbonate, 5 g/L morpholineethanesulfonic acid (MES), 0.4 mg/L hemin, and 10 mg/L gentamicine, pH 5.4, at 37 °C.
Axenization was performed by diluting 0.5 mL of a 7-day stationary phase culture of L. infantum promastigotes (2–3 × 10^7 parasites/mL) in 4.5 mL of amastigotes medium and incubating the culture at 37 °C for 2 or 3 days. L. infantum axenic amastigotes apparition was followed by phase-contrast microscopy using an Eclipse Ti inverted microscope (Nikon, Tokyo, Japan).
(§2) Drug treatment of L. infantum promastigotes was performed during the logarithmic growth phase at a concentration of 2 × 10^6 parasites/mL at 26 °C for 24 h. […] EC50 was evaluated by flow cytometry by the propidium iodide (PI) exclusion method. After selection of the parasite population based on their forward scatter (FSC) and side scatter (SSC) values, live and dead parasite cells were identified by their permeability to PI. All of the assays were conducted in triplicate in at least three independent experiments. Data were analyzed using a nonlinear regression model with GraFit 6 software (Erithacus, Horley, Surrey, U.K.).

[2] = system: L. infantum promastigotes; assay: Leishmanicidal activity on promastigotes (PI exclusion, flow cytometry); format: cell-based, Leishmania infantum; conditions: HepG2 / promastigotes
Protocol: as §1, §2

For `CCCC[C@H](NC(=O)[C@H](CCCCN)NC(=O)[C@H](CCCC)NC(=O)[C@H](CO)NC(=O)[C@@H](NC(=O)CNC(=O)[C@@H](NC(=O)[C@H](CO)NC(=O)[C@H](CCC(N)=O)NC(=O)[C@@H](NC(=O)[C@@H](NC(=O)[C@H](CCCCN)NC(=O)[C@@H]1CCCN1C(=O)[C@H](CCCNC(=N)N)NC(=O)[C@H](CCCNC(=N)N)NC(=O)[C@H](CCCNC(=N)N)NC(=O)[C@H](CCCNC(=N)N)NC(=O)[C@H](CCCNC(=N)N)NC(=O)[C@H](CCCNC(=N)N)NC(=O)[C@H](CCCNC(=N)N)NC(=O)[C@H](CCCNC(=N)N)NC(=O)[C@H](CCCNC(=N)N)NC(C)=O)[C@@H](C)CC)[C@@H](C)CC)C(C)C)[C@@H](C)CC)C(N)=O` [R9-peptide 1, reference compound] (Ac-RRRRRRRRRPKIIQSVGIS[Nle]K[Nle]-NH2; N-terminus and C-terminus assumed), the “SIa (ratio of EC50 against human cells to EC50 against amastigotes)” value [1] was 18.1 and the “SIp (ratio of EC50 against human cells to EC50 against promastigotes)” value [2] was 19.9.
